In series [1] the test system is Aβ40-induced toxicity in differentiated PC-12 cells. Description: Aβ40-induced toxicity, MTT assay in differentiated PC-12 cells. The series is classed as cell-based. The procedure:
(§1) Freshly prepared 10 μM Aβ40 or Aβ42 were mixed with each of the three tweezers derivatives and added to differentiated PC-12 cells. Cell viability relative to media control was measured using the MTT assay.
(§2) 7. […] Based on the capability of the tweezers to inhibit Aβ aggregation, disaggregate pre-formed Aβ fibrils, and stabilize putatively non-toxic Aβ oligomers, we predicted that they should inhibit Aβ-induced toxicity. […] Next, we evaluated the dose-dependence of the effect of each of the three tweezers derivatives on Aβ40 and Aβ42 using the same cell culture system. Aβ42 was used at 10 μM as in the previous experiment, whereas the less neurotoxic Aβ40 was used at 25 μM. […] PC-12 cells were differentiated for 48 hours prior to the start of the assay. […] Based on the data extant, prediction of inhibitory activity based on tweezers structure alone is impossible. Thus, using molecular tweezers as inhibitors of Aβ toxicity is by no means trivial.

Series [2] deals with Aβ42-induced toxicity in differentiated PC-12 cells. Kind of series: Aβ42-induced toxicity, MTT assay in differentiated PC-12 cells. Type of series: cell-based. As to the method:
(§3) Cell viability relative to media control was measured using the MTT assay.
as §1, §2
In general terms: Formazan colour is commonly taken as a measure of viable cells.

Series [3] deals with differentiated PC-12 cells. Kind of series: Effect of tweezers alone on cell viability, MTT assay. Type of series: cell-based. The following applies: 50 μM TW1. The procedure:
as §3, §1, §2

Series [4] deals with rat primary hippocampal neurons. Description: Aβ42-induced decrease in dendritic spine density. The series is classed as cell-based. The procedure:
Neurons were visualized by staining F-actin with phalloidin (red) and nuclei were stained with DAPI (blue). A) Untreated cells show abundant dendritic spines (rough appearance). B and C) Show duplicate fields from the same experiment. Cells incubated with 500 nM Aβ42 oligomers show essential absence of spines (smooth neurites).
(§4) 8. […] An early neurotoxic event induced by Aβ oligomers and believed to be a predominant pathologic mechanism causing amnestic mild cognitive impairment (MCIa) and early AD^(1) is disruption of synapse morphology and communication (Shankar et al. (2007) J. Neurosci. 27: 2866-2875). […] Aβ42 oligomers caused essentially complete depletion of dendritic spines (FIG. 14, panels B, C) compared to control (FIG. 14, panel A). […] This effect endured after the 15-min washing period.

In series [5] the test system is primary mouse hippocampal neurons. Kind of series: Aβ42-mediated inhibition of miniature excitatory postsynaptic currents (mEPSCs). Type of series: cell-based. The following applies: 3 μM Aβ42, 1:10 Aβ42:TW1. As to the method: Cells were perfused with vehicle for 5 min to establish baseline, and then with peptide or peptide:tweezers solutions for additional 20 minutes, and allowed to recover in vehicle solution for 15 minutes.
as §4

In another series the target is T1, calcitonin (Homo sapiens, UniProt P01258).
T1 sequence (P01258 85-116 limits assumed): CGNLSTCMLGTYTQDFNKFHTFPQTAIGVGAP
Kind of series: Fibrillogenesis of calcitonin (ThT fluorescence and EM). The series is classed as biochemical. Particulars: 1:10 or 1:20 concentration ratio.

Another series has as its target β2-microglobulin (β2m) (Homo sapiens, UniProt P61769). Description: Fibrillogenesis of β2-microglobulin (ThT fluorescence and EM). Type of series: biochemical. The following applies: 1:10 or 1:20 concentration ratio.
A further series has as its target insulin (Homo sapiens, UniProt P01308). Description: Fibrillogenesis of insulin (ThT fluorescence and EM). Type of series: biochemical. Particulars: 1:10 or 1:20 concentration ratio.
Series [6] addresses T2, islet amyloid polypeptide (IAPP) (Homo sapiens, UniProt P10997).
T2 sequence (P10997 34-70 limits assumed): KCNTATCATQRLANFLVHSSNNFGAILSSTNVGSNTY
Kind of series: Fibrillogenesis of islet amyloid polypeptide (ThT fluorescence and EM). The series is classed as biochemical. Particulars: 1:10 or 1:20 concentration ratio.

For series [7], the target named is T3, Aβ40 (Homo sapiens, UniProt P05067). Particulars: 20 μM Aβ40, 10-fold excess TW1; for over a month.
The target in series [8] is T4, Aβ42 (Homo sapiens, UniProt P05067). Kind of series: β-sheet formation by Aβ42 under agitation (shaking). Type of series: biochemical. On the set-up: C) 30 μM Aβ42. Particulars: 10 μM Aβ42; 1:10 Aβ:tweezers concentration ratio; shaken at 200 rpm. The procedure: Aβ42 was used at 10 μM. […] The samples were shaken at 200 rpm.
In series [9] the target is T4, Aβ42. Description: Aβ42 aggregation measured by dynamic light scattering (DLS). The series is classed as biochemical. On the set-up: C) 30 μM Aβ42.
Series [10] deals with T4, Aβ42. Kind of series: Quiescent Aβ42 fibril formation measured by electron microscopy (EM). On the set-up: C) 30 μM Aβ42. Type of series: biochemical. Particulars: 25 μM Aβ42 + 20 μM TW1, days 3, 5, 10. The procedure: 8 μL of each solution were applied to glow-discharged, carbon-coated Formvar grids and incubated for 20 min. The samples were fixed by incubating with 5 μL of 2.5% glutaraldehyde for 5 min, and stained with 5 μL of 1% uranyl acetate for 5 min. The stained samples were examined using a JEOL CX100 electron microscope. A-C) 25 μM Aβ42. […] A, D) day 3. B, E) day 5. C, F) day 10.
5. TW1 attenuates Aβ fibril formation as measured by electron microscopy (EM).

The target of series [11] is T3, Aβ40. Type of series: binding. Particulars: 1:1 Aβ40:TW1 concentration ratio. On the set-up: A) 25 μM Aβ40.
In series [12] the target is T4, Aβ42. Kind of series: Quiescent Aβ42 β-sheet formation measured by thioflavin T (ThT) fluorescence. Particulars: 25 μM Aβ42, 20 μM tweezers, substoichiometric.

The text below walks through data of patent US8791092B2 (priority 2009, dated 2014).

“Also recorded” adds a separate entry of the source.

T4 sequence (P05067 672-713 limits assumed): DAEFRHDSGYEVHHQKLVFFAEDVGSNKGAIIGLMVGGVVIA
T3 sequence (P05067 672-711 limits assumed): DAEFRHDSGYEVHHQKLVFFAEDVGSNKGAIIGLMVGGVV
β2-microglobulin (β2m), sequence (P61769 21-119): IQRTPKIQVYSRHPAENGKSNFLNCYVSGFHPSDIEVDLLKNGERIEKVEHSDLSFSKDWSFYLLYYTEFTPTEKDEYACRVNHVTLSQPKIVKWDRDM
insulin, sequence (P01308 25-54 limits assumed, species assumed): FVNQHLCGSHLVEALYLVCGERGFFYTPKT
insulin, sequence (P01308 90-110 partner limits assumed, species assumed): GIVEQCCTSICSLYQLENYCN

With `O=P(O)(O)Oc1c2c(c(OP(=O)(O)O)c3c1C1C[C@H]3c3cc4c(cc31)C1C[C@H]4c3ccccc31)[C@@H]1CC2c2cc3c(cc21)[C@@H]1CC3c2ccccc21` [TW1], the IC50 (in general, the concentration at which inhibition is half-maximal) in [1] (Rattus norvegicus, PC-12, 48 h, read-out: IC50, inhibition of Aβ40-induced toxicity) turned out to be 7 µM; in series [2] (Rattus norvegicus, 10 μM Aβ42, tweezers 0.1-100 μM, PC-12 differentiated 48 hours, read-out: IC50, inhibition of Aβ42-induced toxicity), 60 µM. Further, the “inhibition of Aβ40-induced toxicity (in words)” value in [1] (tweezers 0.1-100 μM, dose-dependence experiment) is “inhibit Aβ-induced toxicity dose-dependently”. In addition, the “inhibition of Aβ42-induced toxicity (in words)” value in series [2] (10 μM Aβ42, tweezers 0.1-100 μM, dose-dependence experiment) was “inhibit Aβ-induced toxicity dose-dependently”. Further, the “times more TW1 required to inhibit Aβ42 than Aβ40 toxicity” value in [2] (from IC50 values) is reported as 9-10 times. Further, the “toxicity of tweezers alone (in words)” value in [3] is recorded as “nontoxic”. Besides, the “rescue of Aβ42-induced depletion of dendritic spines, TW1 present during oligomer preparation” value in series [4] (500 nM Aβ42 oligomerized in presence of 250 nM TW1, 48 h) is on record as “rescued this toxic effect to baseline level; also recorded: essentially complete rescue”. Also, the “rescue of dendritic spines, TW1 added with pre-formed Aβ42 oligomers” value in [4] (500 nM pre-formed Aβ42 oligomers, 5 μM TW1 (10-fold excess), 48 h) was “moderate rescue effect”. The “effect of TW1 alone on dendritic spine morphology” value in [4] (5 μM TW1) is “no effect”. The “rescue of Aβ42-induced reduction of mEPSC frequency” value in series [5] is given as “rescued to baseline level; also recorded: rescues the toxic effect of Aβ42 to baseline level”. Moreover, on calcitonin, the “inhibition of calcitonin fibrillogenesis” value is listed as “inhibited the fibrillogenesis; also recorded: inhibited the aggregation”. For the same molecule, the “inhibition of β2m fibrillogenesis” value on β2-microglobulin (β2m) is given as “inhibited the fibrillogenesis; also recorded: inhibited the aggregation”. Further, the “inhibition of insulin fibrillogenesis” value at insulin was “inhibited the fibrillogenesis; also recorded: inhibited the aggregation”. Also, the “inhibition of IAPP fibrillogenesis” value in series [6] is on record as “inhibited the fibrillogenesis; also recorded: inhibited the aggregation”. Also, the “Aβ40 particle growth (DLS)” value at Aβ40 [7] is “no particle growth was observed”. The “inhibition of β-sheet formation by Aβ42 under agitation” value at Aβ42 [8] is recorded as “efficient inhibition; also recorded: completely inhibited”. For the same molecule, the “Aβ42 particle growth (DLS)” value is listed as “no particle growth was observed” at Aβ42 [9] (20 μM Aβ42, 10-fold excess TW1, for over a month) and “substantially delayed or not observed at all” at Aβ42 [9] (1:1 concentration ratio). Besides, the “conversion of Aβ42 to typical amyloid fibrils (EM)” value at Aβ42 [10] is “delayed substantially”. The “binding site of TW1 in the 1:1 complex (ECD)” value at Aβ40 [11] is recorded as “within the Aβ(14-23) region, most likely at Lys16; also recorded: Lys16”. Further, the “inhibition of β-sheet formation by Aβ42 (ThT)” value against Aβ42 [12] is reported as “inhibit β-sheet formation”.
